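Five concentrations, 48 hours, 96-well plates. GI50 marks 50% less growth.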 Calls of active or inactive are those of the source. Cut-off read from the data, not from the text of the source: active = GI50 up to about 1.1 µM and inactive = higher.
Assays:
Test in all cases: NCI tumour cell line growth inhibition, 48 h
[1] = system: ACHN
[2] = system: CAKI-1
[3] = system: DU-145
[4] = system: HCC 2998
[5] = system: HCT-116
[6] = system: HL-60
[7] = system: HOP-92
[8] = system: LOX IMVI
[9] = system: M14
[10] = system: NCI-H226
[11] = system: RPMI-8226
[12] = system: SF-268
[13] = system: SK-MEL-2
[14] = system: SK-OV-3
[15] = system: SN12C
[16] = system: SNB-75
[17] = system: U-251
[18] = system: UACC-257
[19] = system: UO-31

| Structure (SMILES) | GI50 [1] | GI50 [2] | GI50 [3] | GI50 [4] | GI50 [5] | GI50 [6] | GI50 [7] | GI50 [8] | GI50 [9] | GI50 [10] | GI50 [11] | GI50 [12] | GI50 [13] | GI50 [14] | GI50 [15] | GI50 [16] | GI50 [17] | GI50 [18] | GI50 [19] |
| --- | --- | --- | --- | --- | --- | --- | --- | --- | --- | --- | --- | --- | --- | --- | --- | --- | --- | --- | --- |
| CC(C)(C)n1nc(C2CC2)cc1NC(=O)Nc1ccc(Cl)cc1 | > 100 µM (inactive) | > 100 µM (inactive) | > 100 µM (inactive) | > 100 µM (inactive) | > 100 µM (inactive) | > 100 µM (inactive) | > 100 µM (inactive) | > 100 µM (inactive) | > 100 µM (inactive) | > 100 µM (inactive) | > 100 µM (inactive) | > 100 µM (inactive) | > 100 µM (inactive) | > 100 µM (inactive) | > 100 µM (inactive) | 78 µM (inactive) | > 100 µM (inactive) | > 100 µM (inactive) | > 100 µM (inactive) |
| CN(CCCCN(C)CCc1ccc(Cl)c(Cl)c1)CCCCN1CCCC1 | 1.91 µM (inactive) | 1.6 µM (inactive) | 2.73 µM (inactive) | 0.195 µM (active) | 1.51 µM (inactive) | 1.49 µM (inactive) | 1.26 µM (inactive) | 0.912 µM (active) | 0.787 µM (active) | 2.26 µM (inactive) | 0.649 µM (active) | 1.46 µM (inactive) | 1.63 µM (inactive) | 2.18 µM (inactive) | 1.98 µM (inactive) | 1.73 µM (inactive) | 0.745 µM (active) | 1.63 µM (inactive) | 0.509 µM (active) |
| Cc1[nH]c2ncn3[nH]c(=S)nc3c2c1Cc1ccccc1 | > 100 µM (inactive) | > 100 µM (inactive) | > 100 µM (inactive) | 92.5 µM (inactive) | > 100 µM (inactive) | > 100 µM (inactive) | > 100 µM (inactive) |  | > 100 µM (inactive) | > 100 µM (inactive) |  | > 100 µM (inactive) | > 100 µM (inactive) | > 100 µM (inactive) | > 100 µM (inactive) | 25.2 µM (inactive) | > 100 µM (inactive) | > 100 µM (inactive) | > 100 µM (inactive) |
| CC(=O)O[C@H]1CC[C@@]2(C)C(=C[C@H](c3ccc(O)cc3)[C@H]3[C@@H]4CC[C@H](OC(C)=O)[C@@]4(C)CC[C@@H]32)C1 | 22.6 µM (inactive) | 18.6 µM (inactive) | 20.7 µM (inactive) | 20.5 µM (inactive) | 15.8 µM (inactive) | 19.6 µM (inactive) | 34.4 µM (inactive) | 14.1 µM (inactive) | 19 µM (inactive) | 17.4 µM (inactive) | 14 µM (inactive) | 19 µM (inactive) | 20.2 µM (inactive) | > 100 µM (inactive) | 23 µM (inactive) | 24.7 µM (inactive) | 22.1 µM (inactive) | 22 µM (inactive) | 25.2 µM (inactive) |
| CCCCSC1=N/C(=C\c2ccccc2O)C(Cl)=N1 | > 100 µM (inactive) | > 100 µM (inactive) | > 100 µM (inactive) | > 100 µM (inactive) | > 100 µM (inactive) | > 100 µM (inactive) | > 100 µM (inactive) | > 100 µM (inactive) | > 100 µM (inactive) | > 100 µM (inactive) | > 100 µM (inactive) | > 100 µM (inactive) | > 100 µM (inactive) | > 100 µM (inactive) | > 100 µM (inactive) | > 100 µM (inactive) | > 100 µM (inactive) | > 100 µM (inactive) | > 100 µM (inactive) |
| CNC(C#N)c1ccc(OC)cc1 (stereo not given) | > 100 µM (inactive) | > 100 µM (inactive) | > 100 µM (inactive) | > 100 µM (inactive) | 57 µM (inactive) | 28.6 µM (inactive) | 92.5 µM (inactive) | > 100 µM (inactive) | > 100 µM (inactive) | > 100 µM (inactive) |  | > 100 µM (inactive) | 26.4 µM (inactive) | > 100 µM (inactive) | > 100 µM (inactive) |  | 53.3 µM (inactive) | 54.8 µM (inactive) | > 100 µM (inactive) |
